Legend:
Format in all cases: physicochemical
[1] = Volatility of amines in 30% by weight aqueous solutions (condensate analysis); settings: 30 wt.-% amine + 70 wt.-% H2O, 200 mL, 50° C., 30 L (STP)/h N2, 8 h; average of three experiments
Procedure: The volatility of several amines in 30% by weight aqueous solutions was examined.
The glass cylinder was regulated to 50° C., and 200 mL of the absorbent were introduced in each case. Over an experimental duration of 8 h, 30 L (STP)/h of N2 were passed through the absorbent at ambient pressure.
The experiments were repeated three times.

[2] = Phase separation: critical solution temperature in miscibility unit; settings: 36 wt.-% aqueous solution; measurable up to 140° C.
Procedure: To determine the critical solution temperature, a miscibility unit was used. This unit allows the measurement of the temperature at which phase separation occurs (“critical solution temperature”).
The miscibility unit comprised a sight glass vessel equipped with a pressure gauge and a thermocouple. A heater was used to supply heat to the vessel. Measurements were possible up to a temperature of 140° C. The possible phase separation could be visually observed via the sight glass. In the following table, the measured critical solution temperatures are shown for different aqueous amine mixtures.

[3] = pKA determination by titration with aqueous hydrochloric acid; settings: aqueous amine solution; 20° C.; 0.005 mol/L amine in water titrated with 0.1 mol/L HCl
Procedure: The pKa values of MDEA and TBAPD were determined by means of titration. An aqueous solution with an amine concentration of 0.005 mol/L of amine was used and titrated with aqueous hydrochloric acid (0.1 mol/L) at 20° C.

Amine in condensate [1]	Condensate [1]	Water in condensate [1]	pKa [3]	Compound	Critical Solution Temperature [2]
0.2 wt.-%	28.8 mL	99.5 wt.-%	9.6	CC(C)(C)NCCN1CCCC1=O [TBAEPY, 1-[2-(tert-butylamino)ethyl]pyrrolidin-2-one]	—** (no phase separation observed at up to 140° C.)
0.7 wt.-%	30.1 mL	99.2 wt.-%	–	COCCOCCOCCNC(C)(C)C [M3ETB, (2-(2-(2-tert-butylaminoethoxy)ethoxy)ethyl) methyl ether]	107° ° C.
0.7 wt.-%	30.0 mL	99.3 wt.-%	–	CC(C)(C)NCCOCCO [TBAEE, 2-(2-tert-butylaminoethoxy)ethanol]	–

Second part, the compound before the results:

Compound	Amine in condensate [1]	Condensate [1]	Water in condensate [1]	pKa [3]	Critical Solution Temperature [2]
tert-butylaminoethylmorpholine [TBAEM]	1.6 wt.-%	34.8 mL	98.0 wt.-%	–	–
tert-butylaminoethoxyethylmorpholine [TBAEEM]	0.2 wt.-%	30.5 mL	99.6 wt.-%	–	131° ° C.
